{"source": "patent US20070098732A1", "about": "“Immunologic compounds for prevention, protection, prophylaxis or treatment of immunological disorders, infections and cancer” (Universite De Montreal, priority 2003, published 2007)", "tested_on": "EL-4 lymphoma cells", "experiment": "PDT of EL-4 lymphoma cells with TH9402 and light", "assay_type": "cell-based", "procedure": "The strain of mice B6SJL was used for the evaluation of PDT to induce immuno-protection. In generation of tumor cell lysates, EL-4 cells (American Type Culture Collection, ATCC Accession # TIB-39) were seeded in flasks at 10^6 cells/ml and exposed to 10 μM TH9402 in serum free DMEM without phenol red medium for 40 minutes, followed by exposure to drug-free medium for 90 minutes, then illuminated with a dose of 10J/cm^2. Treated cells were incubated overnight. After incubation, cells and supernatants were collected and spun down. The resulting supernatant was collected, concentrated by vacuum speed using a molecular sieve (centriplus 3000 molecular weight cut-off), and stored frozen at −70° C. until use.", "data": [{"smiles": "Br.COC(=O)c1ccccc1-c1c2ccc(=N)c(Br)c-2oc2c(Br)c(N)ccc12", "note": "[TH9402, 2′-(6-amino-4,5-dibromo-3-imino-3H-xanthen-9-yl)-benzoic acid methyl ester hydrobromide]", "values": [{"measurement": "cell death of EL-4 lymphoma cells undergoing PDT", "value": "rapidly proceed to programmed cell death, apoptosis and/or necrosis"}]}]}
